Measurements: patent publication US20200330409A1, “INJECTABLE COMPOSITION COMPRISING HYALURONIDASE FOR REMOVING LOCAL FAT” (priority 2019, published 2020)

Test system: local fat
Assay: Clinical trials on hyaluronidase unit dose (efficacy threshold, diffusion range)
Format: in vivo
Conditions: per injection
Experimental: It was ascertained from clinical trials that at the hyaluronidase unit dose of 300 IU to 600 IU, it was possible to ensure adequate fat removing effect while minimizing side effects. It was also shown in clinical trials that at the above dose range, if the injectable composition is administered in a volume of 1 cc containing 300 IU of hyaluronidase, the diameter of the diffusion range is about 1 cm. Thus, with the hyaluronidase dose set at 300 IU to 600 IU, by injecting the composition at a volume of 0.5 to 2 cc depending on the hyaluronidase dose and with an interval of 0.5 to 1.5 cm between injection points, injection at narrow intervals is possible, and consequently, lipolysis occurs evenly. Furthermore, a lifting effect occurs concomitantly where skin resilience is improved by the promotion of collagen production through the stimulation of skin by the injection needle. […] Thus, by administering an injectable composition of the present disclosure having the above compositional ranges, the side effects from drug use are minimized while fat removal over a wide area can be carried out using minimal volumes. It was shown in clinical trials that at a hyaluronidase dose of 300 IU, the diameter of the diffusion range for the injectable composition is about 1 cm. […]

Substance: hyaluronidase
- minimum amount of hyaluronidase exhibiting efficacy: 300 IU
